Results published in patent EP3807270B1, “NOVEL HETEROARYL HETEROCYCLYL COMPOUNDS FOR THE TREATMENT OF AUTOIMMUNE DISEASE” (F. Hoffmann-La Roche AG, priority 2018, dated 2019).

Key:
[1] = Human microsome stability assay; type: in vitro ADME; settings: 1 µM test compound, 0.5 mg/mL liver microsomal protein, 37 °C
Procedure: The human microsomal stability assay is used for early assessment of metabolic stability of a test compound in human liver microsomes.
Human liver microsomes (Cat.NO.: 452117, Corning, USA;Cat.NO.:H2610, Xenotech, USA) were preincubated with test compound for 10 minutes at 37 °C in 100 mM potassium phosphate buffer, pH 7.4. The reactions were initiated by adding NADPH regenerating system. The final incubation mixtures contained 1 µM test compound, 0.5 mg/mL liver microsomal protein, 1 mM MgClz, 1 mM NADP, 1 unit/mL isocitric dehydrogenase and 6 mM isocitric acid in 100 mM potassium phosphate buffer, pH 7.4. After incubation times of 0, 3, 6, 9, 15 and 30 minutes at 37 °C, 300 µL of cold acetonitrile (including internal standard) was added to 100 µL incubation mixture to terminate the reaction. Following precipitation and centrifugation, the amount of compound remaining in the samples were determined by LC-MS/MS. Controls of no NADPH regenerating system at zero and 30 minutes were also prepared and analyzed. […] Table 6. Human liver microsome stability of the compounds of present invention

[2] = target: T1, hERG channel (Homo sapiens, UniProt Q12809); test: hERG channel inhibition assay (patch-clamp, CHO hERG cells); type: cell-based; settings: for IC50 / IC20: CHO hERG cells, whole-cell patch-clamp; for IC20: human, CHO cells stably expressing hERG; for hERG IC20 / TLR8 IC50 / hERG IC20 / TLR7 IC50 / hERG IC20 / TLR9 IC50: safety ratio; for hERG IC20 / TLR7 IC50: TLR7 IC50 of ER compounds from Table 1; for hERG IC20 / TLR9 IC50: TLR9 IC50 of ER compounds from Table 1
T1 construct: expressed in transfected cells; host or cells: CHO (Chinese hamster ovary)
T1 sequence (Q12809 whole entry): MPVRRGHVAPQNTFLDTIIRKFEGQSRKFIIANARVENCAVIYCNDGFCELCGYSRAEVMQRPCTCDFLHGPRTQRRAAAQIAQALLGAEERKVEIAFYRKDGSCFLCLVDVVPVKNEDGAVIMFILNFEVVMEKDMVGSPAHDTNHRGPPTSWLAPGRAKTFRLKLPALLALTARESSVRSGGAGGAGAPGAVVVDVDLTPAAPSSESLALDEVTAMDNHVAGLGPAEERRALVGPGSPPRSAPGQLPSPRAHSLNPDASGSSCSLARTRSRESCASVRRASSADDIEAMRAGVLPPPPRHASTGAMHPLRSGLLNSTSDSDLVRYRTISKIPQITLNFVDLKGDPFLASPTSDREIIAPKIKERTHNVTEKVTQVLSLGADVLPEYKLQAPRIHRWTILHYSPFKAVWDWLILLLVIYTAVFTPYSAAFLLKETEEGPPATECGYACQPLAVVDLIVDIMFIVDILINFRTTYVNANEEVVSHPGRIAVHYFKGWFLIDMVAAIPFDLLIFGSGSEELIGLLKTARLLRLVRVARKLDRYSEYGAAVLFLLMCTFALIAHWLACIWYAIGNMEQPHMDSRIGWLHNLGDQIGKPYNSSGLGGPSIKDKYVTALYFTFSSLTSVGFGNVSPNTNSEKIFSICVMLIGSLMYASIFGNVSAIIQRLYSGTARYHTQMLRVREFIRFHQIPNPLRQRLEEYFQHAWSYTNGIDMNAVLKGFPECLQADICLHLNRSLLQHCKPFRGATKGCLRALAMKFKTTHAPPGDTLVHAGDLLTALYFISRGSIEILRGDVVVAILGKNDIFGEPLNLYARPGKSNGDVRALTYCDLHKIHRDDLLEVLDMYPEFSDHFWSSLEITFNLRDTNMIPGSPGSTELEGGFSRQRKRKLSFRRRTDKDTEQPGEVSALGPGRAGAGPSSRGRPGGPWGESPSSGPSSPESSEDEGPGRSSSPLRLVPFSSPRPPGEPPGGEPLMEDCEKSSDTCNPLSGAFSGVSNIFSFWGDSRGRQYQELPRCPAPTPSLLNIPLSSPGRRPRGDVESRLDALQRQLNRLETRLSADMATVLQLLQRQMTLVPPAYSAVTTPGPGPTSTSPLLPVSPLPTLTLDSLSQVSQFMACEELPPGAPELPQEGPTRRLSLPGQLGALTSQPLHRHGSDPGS
Procedure: The hERG K^+ channels were cloned in humans and stably expressed in a CHO (Chinese hamster ovary) cell line. CHOhERG cells were used for patch-clamp (voltage-clamp, whole-cell) experiments. Cells were stimulated by a voltage pattern to activate hERG channels and conduct IKhERG currents (rapid delayed outward rectifier potassium current of the hERG channel). After the cells were stabilized for a few minutes, the amplitude and kinetics of IKhERG were recorded at a stimulation frequency of 0.1 Hz (6 bpm). Thereafter, the test compound was added to the preparation at increasing concentrations. For each concentration, an attempt was made to reach a steady-state effect, usually, this was achieved within 3-10 min at which time the next highest concentration was applied. The amplitude and kinetics of IKhERG are recorded in each concentration of the drug which were compared to the control values (taken as 100%). (references: Redfern WS, Carlsson L, Davis AS, Lynch WG, MacKenzie I, Palethorpe S, Siegl PK, Strang I, Sullivan AT, Wallis R, Camm AJ, Hammond TG. 2003; Relationships between preclinical cardiac electrophysiology, clinical QT interval prolongation and torsade de pointes for a broad range of drugs: evidence for a provisional safety margin in drug development. Cardiovasc. Res. 58:32-45, Sanguinetti MC, Tristani-Firouzi M. 2006; hERG potassium channels and cardiac arrhythmia. Nature 440:463-469, Webster R, Leishman D, Walker D. 2002; Towards a drug concentration effect relationship for QT prolongation and torsades de pointes. Curr. Opin. Drug Discov. Devel. 5:116-26).
Table 3. hERG and safety ratio results

| SMILES | Clearance of Human microsome [1] | IC50 [2] | IC20 [2] | hERG IC20 / TLR8 IC50 [2] | hERG IC20 / TLR7 IC50 [2] | hERG IC20 / TLR9 IC50 [2] |
| --- | --- | --- | --- | --- | --- | --- |
| C[C@@H]1CN(c2ccc(C#N)c3ncccc23)C[C@H](CN2CCN(c3ccc4c(n3)CN[C@H]4C)CC2)O1 (single isomer, unassigned) [Example 63] | 6.15 mL/min/kg |  |  |  |  |  |
| C[C@@H]1CN(c2ccc(C#N)c3ncccc23)C[C@H](CN2CCN(c3cnc4c(c3)CN[C@H]4C)CC2)O1 (single isomer, unassigned) [Example 67] | 6.15 mL/min/kg |  |  |  |  |  |
| C[C@@H]1CN(c2ccc(C#N)c3nccnc23)C[C@H](CN2CCN(c3ccc4c(n3)CN[C@H]4C)CC2)O1 (single isomer, unassigned) [Example 78] | 7.50 mL/min/kg |  |  |  |  |  |
| C[C@@H]1CN(c2ccc(C#N)c3nccnc23)C[C@H](CN2CCN(c3cc4c(cn3)C[C@H](C)NC4)CC2)O1 (single isomer, unassigned) [Example 81] | 6.15 mL/min/kg |  |  |  |  |  |
| C[C@@H]1Cc2cnc(N3CCN(C[C@H]4CN(c5ccc(C#N)c6nccnc56)C[C@@H](C)O4)CC3)cc2CN1 (single isomer, unassigned) [Example 82] | 8.84 mL/min/kg |  |  |  |  |  |
| C[C@@H]1Cc2cc(N3CCN(C[C@H]4CN(c5ccc(C#N)c6nccnc56)C[C@@H](C)O4)CC3)ncc2CN1 (single isomer, unassigned) [Example 83] | 8.31 mL/min/kg |  |  |  |  |  |
| C[C@@H]1CN(c2ccc(C#N)c3nccnc23)C[C@H](CN2CCN(c3cc4c(cn3)[C@H](C)NCC4)CC2)O1 (single isomer, unassigned) [Example 85] | 7.83 mL/min/kg |  |  |  |  |  |
| C[C@@H]1CN(c2ccc(C#N)c3ncccc23)C[C@H](CN2CCN(c3ccc4c(c3)CCNC4)CC2)O1 [Example 5, 5-[(2R,6S)-2-methyl-6-[[4-(1,2,3,4-tetrahydroisoquinolin-6-yl)piperazin-1-yl]methyl]morpholin-4-yl]quinoline-8-carbonitrile] |  | > 20 µM | > 10 µM | >497.5 | >320.5 | >156.0 |
| C[C@@H]1CN(c2ccc(C#N)c3ncsc23)C[C@H](CN2CCN(c3cnc4c(c3)CNC4)CC2)O1 [Example 8, 7-[(2S,6R)-2-[[4-(6,7-dihydro-5H-pyrrolo[3,4-b]pyridin-3-yl)piperazin-1-yl]methyl]-6-methyl-morpholin-4-yl]-1,3-benzothiazole-4-carbonitrile] |  | > 20 µM | > 10 µM | >3333.3 | >1020.4 | >207.5 |
| C[C@@H]1CN(c2ccc(C#N)c3ncccc23)C[C@H](CN2CCN(c3ccc4c(c3)CNC4)C(CO)C2)O1 (stereo partly drawn) [Example 13, 5-[(2S,6R)-2-[[3-(hydroxymethyl)-4-isoindolin-5-yl-piperazin-1-yl]methyl]-6-methyl-morpholin-4-yl]quinoline-8-carbonitrile] | 8.00 mL/min/kg |  |  |  |  |  |
| C[C@@H]1CN(c2ccc(C#N)c3ncccc23)C[C@H](CN2CCN(c3ccc4c(n3)CCNC4)CC2)O1 [Example 14, 5-[(2R,6S)-2-methyl-6-[[4-(5,6,7,8-tetrahydro-1,6-naphthyridin-2-yl)piperazin-1-yl]methyl]morpholin-4-yl]quinoline-8-carbonitrile] |  | > 20 µM | 7.07 µM | 1725.4 | 673.7 | 122.8 |
| C[C@@H]1CN(c2ccc(C#N)c3ncccc23)C[C@H](CN2CCN(c3ccc4c(c3)CN(CCO)C4)CC2)O1 [Example 16, 5-[(2S,6R)-2-[[4-[2-(2-hydroxyethyl)isoindolin-5-yl]piperazin-1-yl]methyl]-6-methyl-morpholin-4-yl]quinoline-8-carbonitrile] |  | > 20 µM | > 10 µM | >1000.0 | >490.2 | >110.4 |
| C[C@@H]1CN(c2ccc(C#N)c3ncccc23)C[C@H](CN2CCN(c3cc4c(cn3)CNCC4)CC2)O1 [Example 19, 5-[(2R,6S)-2-methyl-6-[[4-(5,6,7,8-tetrahydro-2,7-naphthyridin-3-yl)piperazin-1-yl]methyl]morpholin-4-yl]quinoline-8-carbonitrile] |  | > 20 µM | > 10 µM | >2283.1 | >1118.6 | >158.3 |
| C[C@@H]1CN(c2ccc(C#N)c3ncccc23)C[C@H](CN2CCN(c3cnc4c(c3)CNCC4)CC2)O1 [Example 21, 5-[(2R,6S)-2-methyl-6-[[4-(5,6,7,8-tetrahydro-1,6-naphthyridin-3-yl)piperazin-1-yl]methyl]morpholin-4-yl]quinoline-8-carbonitrile] |  | > 20 µM | > 10 µM | >1098.9 | >900.9 | >193.8 |
| C[C@@H]1CN(c2ccc(C#N)c3ncccc23)C[C@H](CN2CCN(c3ccc4c(c3)CCNC4CO)CC2)O1 (stereo partly drawn) [Example 24, 5-[(2S,6R)-2-[[4-[1-(hydroxymethyl)-1,2,3,4-tetrahydroisoquinolin-6-yl]piperazin-1-yl]methyl]-6-methyl-morpholin-4-yl]quinoline-8-carbonitrile] | 6.15 mL/min/kg |  |  |  |  |  |
| C[C@@H]1CN(c2ccc(C#N)c3nccnc23)C[C@H](CN2CCN(c3cnc4c(c3)CNC4)CC2)O1 [Example 25, 8-[(2S,6R)-2-[[4-(6,7-dihydro-5H-pyrrolo[3,4-b]pyridin-3-yl)piperazin-1-yl]methyl]-6-methyl-morpholin-4-yl] quinoxaline-5-carbonitrile] |  | > 20 µM | > 10 µM | >584.8 | >520.8 | >111.7 |
| CC1NCc2cc(N3CCN(C[C@H]4CN(c5ccc(C#N)c6ncccc56)C[C@@H](C)O4)CC3)ccc21 (stereo partly drawn) [Example 28, 5-[(2R,6S)-2-methyl-6-[[4-(1-methylisoindolin-5-yl)piperazin-1-yl]methyl]morpholin-4-yl]quinoline-8-carbonitrile] | 6.15 mL/min/kg |  |  |  |  |  |
| C[C@@H]1CN(c2ccc(C#N)c3ncccc23)C[C@H](CN2CCN(c3ccc4c(n3)CNC4)CC2)O1 [Example 30, 5-[(2S,6R)-2-[[4-(6,7-dihydro-5H-pyrrolo[3,4-b]pyridin-2-yl)piperazin-1-yl]methyl]-6-methyl-morpholin-4-yl] quinoline-8-carbonitrile] |  | > 20 µM | > 10 µM | >1515.2 | >840.3 | >246.3 |
| CC1NCc2ncc(N3CCN(C[C@H]4CN(c5ccc(C#N)c6ncccc56)C[C@@H](C)O4)CC3)cc21 (stereo partly drawn) [Example 41, 5-[(2R,6S)-2-methyl-6-[[4-(5-methyl-6,7-dihydro-5H-pyrrolo[3,4-b]pyridin-3-yl)piperazin-1-yl]methyl]morpholin-4-yl]quinoline-8-carbonitrile] |  | > 20 µM | > 10 µM | >574.7 | >354.6 | >166.7 |
| C[C@@H]1CN(c2ccc(C#N)c3ncccc23)C[C@H](CN2CC3(C2)CN(c2cnc4c(n2)CCNC4)CCO3)O1 [Example 50, 5-[(2R,6S)-2-methyl-6-[[8-(5,6,7,8-tetrahydropyrido[3,4-b]pyrazin-2-yl)-5-oxa-2,8-diazaspiro [3.5]nonan-2-yl]methyl]morpholin-4-yl] quinoline-8-carbonitrile] |  | > 20 µM | > 10 µM | >3125.0 | >2702.7 | > 144.9 |
| COc1ccc(N2CCN(C[C@H]3CN(c4ccc(C#N)c5ncccc45)C[C@@H](C)O3)CC2)cc1 [Example R1, 5-[(2S,6R)-2-[[4-(4-methoxyphenyl)piperazin-1-yl]methyl]-6-methyl-morpholin-4-yl]quinoline-8-carbonitrile, reference compound] |  | 2.74 µM | 0.879 µM | 6.2 | 9.3 | 0.1 |
